The text below walks through data of patent US11702422B2, “Imidazopyridazines as modulators of IL-17” (Janssen Pharmaceutica NV, priority 2020, dated 2023).

Some results are limits rather than exact numbers.

Assay [1] relates to IL-17A-induced G-CSF production in human normal keratinocyte (NHK). The experiment in a line: NHK Assay: IL-17A-induced G-CSF production in human normal keratinocytes. It counts as cell-based. The settings on record: 24 h, adult normal human keratinocytes, IL-17A 5 ng/mL, simple average if tested more than once. In short, it runs like this:
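Titrated compound plus recombinant human IL-17A (pre-incubated 1 h, rt) were applied to adult human keratinocytes at 5 ng/mL cytokine, 0.2% DMSO. Cultures ran 24 h at 37° C, and supernatant G-CSF was measured by HTRF to derive IC50.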

The target in assay [2] is IL-17A(FLAG-Tagged): IL-17RA(His-Tagged) (Homo sapiens, UniProt Q16552, K93Q). The experiment in a line: IL-17A(FLAG-Tagged): IL-17RA(His-Tagged) Binding Disruption Eu-HTRF Assay. The settings on record: IL-17A/IL-17RA binding disruption, simple average if tested more than once. In short, it runs like this: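 IC50 comes from a one-site competition fit of the HTRF 665/620 nm ratio. Compound dilutions (2-fold, 22 points) were held 1 h rt with FLAG-tagged IL-17A dimer, then His-tagged IL-17RA plus Eu-cryptate anti-FLAG and D2 anti-His antibodies were added for 2 h rt.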
On the technique in general: Time-resolved FRET reads energy transfer from a long-lived donor to a nearby acceptor.

UniProt Q16552, sequence (Q16552 with tags, fused parts or gaps K93Q): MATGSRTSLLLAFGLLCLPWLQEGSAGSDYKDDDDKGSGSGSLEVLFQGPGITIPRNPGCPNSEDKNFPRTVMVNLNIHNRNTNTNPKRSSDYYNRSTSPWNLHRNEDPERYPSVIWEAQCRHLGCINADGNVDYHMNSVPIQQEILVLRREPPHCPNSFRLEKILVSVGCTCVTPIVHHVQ

Regarding `O=C(CCC(F)(F)F)N[C@@H](c1cnn2cc([C@@H](NC(=O)c3conc3C3CCC3)C3CCC(F)(F)CC3)nc2c1)C1CC1` [Example 474, 3-Cyclobutyl-N—((S)-(7-((R)-cyclopropyl(4,4,4-trifluorobutanamido)methyl)imidazo[1,2-b]pyridazin-2-yl)(4,4-difluorocyclohexyl)methyl)isoxazole-4-carboxamide], the concentration for half-maximal inhibition (IC50) – broadly, the concentration at which inhibition is half-maximal – was 130 nM in assay [1] (Homo sapiens, Keratinocyte) and 41 nM in assay [2].
For `CC(C)n1nccc1C(=O)N[C@H](c1cn2ncc([C@H](NC(=O)C[C@@](C)(O)C(F)(F)F)C3CC3)cc2n1)C1CCC(F)(F)CC1` (relative stereo) [Example 132, N—((S)-(7-((R*)-Cyclopropyl((R*)-4,4,4-trifluoro-3-hydroxy-3-methylbutanamido)methyl)imidazo[1,2-b]pyridazin-2-yl)(4,4-difluorocyclohexyl)methyl)-1-isopropyl-1H-pyrazole-5-carboxamide], in that order: 260 nM and 220 nM.
For `CCn1nccc1C(=O)N[C@H](c1cn2ncc([C@H](NC(=O)CCC(F)(F)F)C3CC3)cc2n1)C1CCC(F)(F)CC1` [Example 127, N—((S)-(7-((R)-Cyclopropyl(4,4,4-trifluorobutanamido)methyl)imidazo[1,2-b]pyridazin-2-yl)(4,4-difluorocyclohexyl)methyl)-1-ethyl-1H-pyrazole-5-carboxamide], in that order: 100 nM and 40 nM.
Regarding `[2H]C([2H])([2H])C([2H])([2H])n1nccc1C(=O)N[C@H](c1cn2ncc(C(COC)NC(=O)CC3CC(F)(F)C3)cc2n1)C1CCC(F)(F)CC1` (single isomer, unassigned) [Example 522, N—((S)-(7-((S*)-1-(2-(3,3-Difluorocyclobutyl)acetamido)-2-methoxyethyl)imidazo[1,2-b]pyridazin-2-yl)(4,4-difluorocyclohexyl)methyl)-1-(ethyl-d5)-1H-pyrazole-5-carboxamide], the IC50 in assay [1] came out at 3600 nM; in assay [2], 2200 nM.
`N#CCC(NC(=O)CC1CC(F)(F)C1)c1cnn2cc([C@@H](NC(=O)c3nonc3C3CC3)C3CCC(F)(F)CC3)nc2c1` (single isomer, unassigned) [Example 398, N—((S)-(7-((S*)-2-Cyano-1-(2-(3,3-difluorocyclobutyl)acetamido)ethyl)imidazo[1,2-b]pyridazin-2-yl)(4,4-difluorocyclohexyl)methyl)-4-cyclopropyl-1,2,5-oxadiazole-3-carboxamide]: the IC50 in assay [1] (Homo sapiens, Keratinocyte) turned out to be 71 nM; in assay [2], 42 nM.
With `CC(C)n1nccc1C(=O)N[C@@H](COC(C)(C)C(F)(F)F)c1cn2ncc([C@H](NC(=O)CC3CC(F)(F)C3)C3CC3)cc2n1` [Example 320, N—((R)-1-(7-((R)-Cyclopropyl(2-(3,3-difluorocyclobutyl)acetamido)methyl)imidazo[1,2-b]pyridazin-2-yl)-2-((1,1,1-trifluoro-2-methylpropan-2-yl)oxy)ethyl)-1-isopropyl-1H-pyrazole-5-carboxamide], the half-inhibitory concentration (IC50) was found to be 62 nM in assay [1] (Homo sapiens, Keratinocyte) and 74 nM in assay [2].
`O=C(CC1CC(F)(F)C1)NC(c1cnn2cc([C@@H](NC(=O)c3nonc3C3CC3)C3CCC(F)(F)CC3)nc2c1)C(F)(F)F` (single isomer, unassigned) [Example 421, 4-Cyclopropyl-N—((S)-(7-((S*)-1-(2-(3,3-difluorocyclobutyl)acetamido)-2,2,2-trifluoroethyl)imidazo[1,2-b]pyridazin-2-yl)(4,4-difluorocyclohexyl)methyl)-1,2,5-oxadiazole-3-carboxamide]: the IC50 in assay [1] (Homo sapiens, Keratinocyte) was 43 nM; in assay [2], 98 nM.
For `COCC(NC(=O)CC1CC(F)(F)C1)c1cnn2cc([C@H](COC(C)(C)C(F)(F)F)NC(=O)c3nonc3C3CC3)nc2c1` (single isomer, unassigned) [Example 538, 4-Cyclopropyl-N—((R)-1-(7-((S*)-1-(2-(3,3-difluorocyclobutyl)acetamido)-2-methoxyethyl)imidazo[1,2-b]pyridazin-2-yl)-2-((1,1,1-trifluoro-2-methylpropan-2-yl)oxy)ethyl)-1,2,5-oxadiazole-3-carboxamide] the same measures were 80 nM and 24 nM.
On to `Cc1nonc1C(=O)N[C@@H](COC(C)(C)C)c1cn2ncc(C(NC(=O)CCC(F)(F)F)C3CC3)cc2n1` (single isomer, unassigned) [Example 315, N—((R)-2-(tert-Butoxy)-1-(7-((S*)-cyclopropyl(4,4,4-trifluorobutanamido)methyl)imidazo[1,2-b]pyridazin-2-yl)ethyl)-4-methyl-1,2,5-oxadiazole-3-carboxamide], for which the half-maximal inhibitory concentration (IC50) is more than 20000 nM in assay [1] and 13000 nM in assay [2].
Turning to `O=C(CCC(F)(F)F)N[C@@H](c1cnn2cc([C@@H](NC(=O)[C@@H]3CC34CCC4)C3CCC(F)(F)CC3)nc2c1)C1CC1` (relative stereo) [Example 366, (R*)—N—((S)-(7-((R*)-Cyclopropyl(4,4,4-trifluorobutanamido)methyl)imidazo[1,2-b]pyridazin-2-yl)(4,4-difluorocyclohexyl)methyl)spiro[2.3]hexane-1-carboxamide], the IC50 in assay [1] (Homo sapiens, Keratinocyte) is more than 20000 nM; in assay [2] it was 2400 nM.
For `O=C(CCC(F)(F)F)N[C@@H](c1cnn2cc([C@@H](NC(=O)[C@@H]3C[C@H]3C(F)F)C3CCC(F)(F)CC3)nc2c1)C1CC1` (single isomer, unassigned) [Example 360] the same measures were more than 20000 nM and 2700 nM.
For `CCc1noc(C)c1C(=O)N[C@H](c1cn2ncc([C@H](NC(=O)CCC(F)(F)F)C3CC3)cc2n1)C1CCC(F)(F)CC1` [Example 82, N—((S)-(7-((R)-Cyclopropyl(4,4,4-trifluorobutanamido)methyl)imidazo[1,2-b]pyridazin-2-yl)(4,4-difluorocyclohexyl)methyl)-3-ethyl-5-methylisoxazole-4-carboxamide], in that order: more than 20000 nM and 3000 nM.
For `O=C(CCC(F)(F)F)N[C@@H](c1cnn2cc([C@@H](NC(=O)c3conc3CCC(F)(F)F)C3CCC(F)(F)CC3)nc2c1)C1CC1` [Example 77, N—((S)-(7-((R)-Cyclopropyl(4,4,4-trifluorobutanamido)methyl)imidazo[1,2-b]pyridazin-2-yl)(4,4-difluorocyclohexyl)methyl)-3-(3,3,3-trifluoropropyl)isoxazole-4-carboxamide] the same measures were 60 nM and 50 nM.
For the molecule `[2H]C([2H])([2H])C([2H])([2H])n1nccc1C(=O)N[C@H](c1cn2ncc([C@H](NC(=O)CC3CC(F)(F)C3)C3CC3)cc2n1)C1CCC(F)(F)CC1` [Example 234, N—((S)-(7-((R)-Cyclopropyl(2-(3,3-difluorocyclobutyl)acetamido)methyl)imidazo[1,2-b]pyridazin-2-yl)(4,4-difluorocyclohexyl)methyl)-1-(ethyl-d5)-1H-pyrazole-5-carboxamide], the half-inhibitory concentration (IC50) came to 52 nM in assay [1] (Homo sapiens, Keratinocyte) and 85 nM in assay [2].
For `Cc1nonc1C(=O)N[C@H](c1cn2ncc([C@H](NC(=O)CCCF)C3CC3)cc2n1)C1CCC(F)(F)CC1` [Example 252, N—((S)-(7-((R)-Cyclopropyl(4-fluorobutanamido)methyl)imidazo[1,2-b]pyridazin-2-yl)(4,4-difluorocyclohexyl)methyl)-4-methyl-1,2,5-oxadiazole-3-carboxamide] the same measures were 7700 nM and 640 nM.
For `CCOc1nocc1C(=O)N[C@H](c1cn2ncc([C@H](NC(=O)CCC(F)(F)F)C3CC3)cc2n1)C1CCC(F)(F)CC1` [Example 238, N—((S)-(7-((R)-Cyclopropyl(4,4,4-trifluorobutanamido)methyl)imidazo[1,2-b]pyridazin-2-yl)(4,4-difluorocyclohexyl)methyl)-3-ethoxyisoxazole-4-carboxamide] the same measures were 830 nM and 190 nM.
For `[2H]C([2H])([2H])n1nccc1C(=O)N[C@H](c1cn2ncc([C@@H](NC(=O)CC3CC(F)(F)C3)C3CCC3)cc2n1)C1CCC(F)(F)CC1` (relative stereo) [Example 498, N—((S)-(7-((S*)-Cyclobutyl(2-(3,3-difluorocyclobutyl)acetamido)methyl)imidazo[1,2-b]pyridazin-2-yl)(4,4-difluorocyclohexyl)methyl)-1-methyl-d3)-1H-pyrazole-5-carboxamide], the IC50 in assay [1] (Homo sapiens, Keratinocyte) is 20000 nM; in assay [2], 380 nM.
For `O=C(CCC(F)(F)F)N[C@@H](c1cnn2cc([C@@H](NC(=O)c3cnn(CCOC(F)F)n3)C3CCC(F)(F)CC3)nc2c1)C1CC1` [Example 35, N—((S)-(7-((R)-Cyclopropyl(4,4,4-trifluorobutanamido)methyl)imidazo[1,2-b]pyridazin-2-yl)(4,4-difluorocyclohexyl)methyl)-2-(2-(difluoromethoxy)ethyl)-2H-1,2,3-triazole-4-carboxamide] the same measures were 200 nM and 120 nM.
For `O=C(CCC(F)(F)F)N[C@@H](c1cnn2cc([C@@H](NC(=O)c3cnnn3CCC(F)F)C3CCC(F)(F)CC3)nc2c1)C1CC1` [Example 49, N—((S)-(7-((R)-Cyclopropyl(4,4,4-trifluorobutanamido)methyl)imidazo[1,2-b]pyridazin-2-yl)(4,4-difluorocyclohexyl)methyl)-1-(3,3-difluoropropyl)-1H-1,2,3-triazole-5-carboxamide], in that order: 110 nM and 95 nM.
